# According to ChEMBL document CHEMBL4017476, “Synthesis of novel 5,6-dehydrokawain analogs as osteogenic inducers and their action mechanisms” (Bioorg Med Chem Lett, 2017):
# Activity calls are given as the source filed them. The rule behind the calls is not given here.
# What was measured:
# RAW264 [1] = assay: Inhibition of RANKL-stimulated osteoclastogenesis in mouse RAW264 cells assessed as reduction in TRAP activity at 20 uM measured after 72 hrs by microscopic analysis; type: functional, cell-based
# MC3T3-E1 [2] = assay: Cytotoxicity against mouse MC3T3-E1 cells assessed as cell number at 30 uM measured after 4 days by WST-8 assay relative to control; type: cell-based; conditions: mc3t3-e1, 96 h
# MC3T3-E1 [3] = assay: Osteogenic activity in mouse MC3T3-E1 cells assessed as increase in mineralization at 30 uM measured after 10 days by alizarin red S staining based assay; type: functional, cell-based
# MC3T3-E1 [4] = assay: Osteogenic activity in mouse MC3T3-E1 cells assessed as increase in ALP activity at 30 uM measured after 4 days relative to control; type: functional
# MC3T3-E1 [5] = assay: Osteogenic activity in mouse MC3T3-E1 cells assessed as increase in ALP activity at 60 uM measured after 4 days relative to control; type: functional
# MC3T3-E1 [6] = assay: Osteogenic activity in mouse MC3T3-E1 cells assessed as increase in mineralization at 0.1 to 60 uM measured after 10 days by alizarin red S staining based assay; type: functional, cell-based
# MC3T3-E1 [7] = assay: Cytotoxicity against mouse MC3T3-E1 cells assessed as cell number at 60 uM measured after 4 days by WST-8 assay relative to control; type: cell-based; conditions: mc3t3-e1, 96 h
# MC3T3-E1 [8] = assay: Osteogenic activity in mouse MC3T3-E1 cells assessed as increase in mineralization at 60 uM measured after 10 days by alizarin red S staining based assay; type: functional, cell-based
# MC3T3-E1 [9] = assay: Osteogenic activity in mouse MC3T3-E1 cells assessed as increase in ALP activity at 10 uM measured after 4 days relative to control; type: functional, cell-based
# MC3T3-E1 [10] = assay: Osteogenic activity in mouse MC3T3-E1 cells assessed as increase in mineralization at 10 uM measured after 10 days by alizarin red S staining based assay; type: functional, cell-based
# [11] = target: T1, MAP kinase p38 (Mus musculus) (UniProt P47811+O08911+Q9WUI1+Q9Z1B7); assay: Induction of p38 MAPK phosphorylation in mouse MC3T3-E1 cells assessed as ratio of phosphorylated p38 to unphosphorylated p38 protein level at 30 uM measured after 15 mins by Western blot analysis relative to control; type: cell-based
# MC3T3-E1 [12] = assay: Osteogenic activity in mouse MC3T3-E1 cells assessed as increase in mineralization at 30 uM measured after 10 days in presence of BMP2 inhibitor noggin by alizarin red S staining based assay; type: functional, cell-based
# Mus musculus [13] = species on record: Mus musculus; assay: Activation of BMP signaling pathway in mouse MC3T3-E1 cells assessed as increase in Alpl mRNA expression after 2 days by SYBR green-dye based RT-PCR method; type: cell-based
# Mus musculus [14] = species on record: Mus musculus; assay: Activation of BMP signaling pathway in mouse MC3T3-E1 cells assessed as increase in Runx2 mRNA expression after 2 days by SYBR green-dye based RT-PCR method; type: cell-based
# Mus musculus [15] = species on record: Mus musculus; assay: Activation of BMP signaling pathway in mouse MC3T3-E1 cells assessed as increase in Alpl mRNA expression at 10 uM after 2 days by SYBR green-dye based RT-PCR method relative to control; type: cell-based
# Mus musculus [16] = species on record: Mus musculus; assay: Activation of BMP signaling pathway in mouse MC3T3-E1 cells assessed as increase in Bglap mRNA expression after 2 days by SYBR green-dye based RT-PCR method; type: cell-based
# SMAD1/5/9 (Mus musculus) [17] = target: T2, SMAD1/5/9 (Mus musculus) (UniProt P70340+P97454+Q9JIW5); assay: Induction of Smad1/5/8 phosphorylation in mouse MC3T3-E1 cells assessed as ratio of phosphorylated Smad1/5/8 to actin beta protein level at 30 uM measured after 5 mins by Western blot analysis relative to control; type: cell-based
# RAW264 [18] = assay: Inhibition of RANKL-stimulated osteoclastogenesis in mouse RAW264 cells assessed as reduction in TRAP-positive multinucleated cells at 20 uM measured after 72 hrs by TRAP staining based microscopic analysis; type: functional, cell-based
# [19] = target: T1, MAP kinase p38 (Mus musculus); assay: Induction of p38 MAPK phosphorylation in mouse MC3T3-E1 cells assessed as ratio of phosphorylated p38 to unphosphorylated p38 protein level at 30 uM measured after 30 mins by Western blot analysis relative to control; type: cell-based
# MC3T3-E1 [20] = assay: Osteogenic activity in mouse MC3T3-E1 cells assessed as increase in mineralization at 30 uM measured after 10 days in presence of type-1 BMP receptor kinase inhibitor LDN-193189 by alizarin red S staining based assay; type: functional, cell-based
# MC3T3-E1 [21] = assay: Osteogenic activity in mouse MC3T3-E1 cells assessed as increase in mineralization at 30 uM measured after 10 days in presence of p38 MAPK inhibitor SB203580 by alizarin red S staining based assay; type: functional, cell-based
# Mus musculus [22] = species on record: Mus musculus; assay: Activation of BMP signaling pathway in mouse MC3T3-E1 cells assessed as increase in Bglap mRNA expression at 10 uM after 2 days by SYBR green-dye based RT-PCR method relative to control; type: cell-based
# SMAD1/5/9 (Mus musculus) [23] = target: T2, SMAD1/5/9 (Mus musculus); assay: Induction of Smad1/5/8 phosphorylation in mouse MC3T3-E1 cells assessed as ratio of phosphorylated Smad1/5/8 to actin beta protein level at 30 uM measured after 15 mins by Western blot analysis relative to control; type: cell-based
# Mus musculus [24] = species on record: Mus musculus; assay: Activation of BMP signaling pathway in mouse MC3T3-E1 cells assessed as increase in Osterix mRNA expression at 10 uM after 2 days by SYBR green-dye based RT-PCR method relative to control; type: cell-based
# SMAD1/5/9 (Mus musculus) [25] = target: T2, SMAD1/5/9 (Mus musculus); assay: Induction of Smad1/5/8 phosphorylation in mouse MC3T3-E1 cells assessed as ratio of phosphorylated Smad1/5/8 to actin beta protein level at 30 uM measured after 30 mins by Western blot analysis relative to control; type: cell-based
# Mus musculus [26] = species on record: Mus musculus; assay: Activation of BMP signaling pathway in mouse MC3T3-E1 cells assessed as increase in Runx2 mRNA expression at 10 uM after 2 days by SYBR green-dye based RT-PCR method relative to control; type: cell-based
# [27] = target: T1, MAP kinase p38 (Mus musculus); assay: Induction of p38 MAPK phosphorylation in mouse MC3T3-E1 cells assessed as ratio of phosphorylated p38 to unphosphorylated p38 protein level at 30 uM measured after 5 mins by Western blot analysis relative to control; type: cell-based
# Mus musculus [28] = species on record: Mus musculus; assay: Activation of BMP signaling pathway in mouse MC3T3-E1 cells assessed as increase in Osterix mRNA expression after 2 days by SYBR green-dye based RT-PCR method; type: cell-based
compound,measurement,setting,value
CC(C)Oc1ccc2c(=O)c(-c3ccccc3)coc2c1,inhibition,RAW264 [1],Active
CCCc1ccc(/C=C/c2cc(OC)cc(=O)o2)cc1,fold change (FC),MC3T3-E1 [2],0.85 to 1.25
CCc1ccccc1/C=C/c1cc(OC)cc(=O)o1,Activity,MC3T3-E1 [3],inactive
same,Activity,MC3T3-E1 [4],inactive
same,fold change (FC),MC3T3-E1 [2],0.85 to 1.25
COc1ccc(/C=C/c2cc(OC)cc(=O)o2)cc1 [YANGONIN],Activity,MC3T3-E1 [3],inactive
same,Activity,MC3T3-E1 [4],inactive
same,fold change (FC),MC3T3-E1 [2],0.85 to 1.25
COc1cc(/C=C/c2ccccc2)oc(=O)c1 [DESMETHOXYYANGONIN],fold change (FC),MC3T3-E1 [5],1.25
same,Activity,MC3T3-E1 [6],Active
same,fold change (FC),MC3T3-E1 [7],0.85 to 1.25
same,Activity,MC3T3-E1 [8],Active
same,inhibition,RAW264 [1],inactive
same,fold change (FC),MC3T3-E1 [2],0.85 to 1.25
COc1cc(/C=C/C2CCCCC2)oc(=O)c1,Activity,MC3T3-E1 [3],Active
same,fold change (FC),MC3T3-E1 [4],1.32 - 2.87
same,fold change (FC),MC3T3-E1 [2],0.85 to 1.25
COc1cc(/C=C/c2ccc(F)cc2)oc(=O)c1,Activity,MC3T3-E1 [3],inactive
same,Activity,MC3T3-E1 [4],inactive
same,fold change (FC),MC3T3-E1 [2],0.85 to 1.25
COc1cc(/C=C/c2ccc(C(C)(C)C)cc2)oc(=O)c1,Activity,MC3T3-E1 [9],Active
same,Activity,MC3T3-E1 [10],Active
same,fold change (FC),MC3T3-E1 [2],0.85 to 1.25
CCOc1ccc(/C=C/c2cc(OC)cc(=O)o2)cc1,Activity,MC3T3-E1 [3],Active
same,fold change (FC),MC3T3-E1 [4],1.32 - 2.87
same,fold change (FC),MC3T3-E1 [2],0.85 to 1.25
COc1cc(/C=C/C2CC2)oc(=O)c1,Activity,MC3T3-E1 [3],inactive
same,Activity,MC3T3-E1 [4],inactive
same,fold change (FC),MC3T3-E1 [2],0.85 to 1.25
COc1cc(/C=C/c2ccc(C(F)(F)F)cc2)oc(=O)c1,Activity,MC3T3-E1 [3],Active
same,fold change (FC),MC3T3-E1 [4],1.32 - 2.87
same,fold change (FC),MC3T3-E1 [2],0.85 to 1.25
CCCCc1ccc(/C=C/c2cc(OC)cc(=O)o2)cc1,Ratio,[11],1.5
same,Activity,MC3T3-E1 [12],inactive
same,Activity,MC3T3-E1 [9],Active
same,Activity,MC3T3-E1 [10],Active
same,Activity,Mus musculus [13],Dose-dependent effect
same,Activity,Mus musculus [14],Dose-dependent effect
same,fold change (FC),Mus musculus [15],2.09
same,Activity,Mus musculus [16],Dose-dependent effect
same,Ratio,SMAD1/5/9 (Mus musculus) [17],1.1
same,inhibition,RAW264 [18],Active
same,Ratio,[19],1.1
same,Activity,MC3T3-E1 [20],inactive
same,Activity,MC3T3-E1 [21],inactive
same,fold change (FC),Mus musculus [22],1.33
same,Activity,MC3T3-E1 [3],Active
same,Ratio,SMAD1/5/9 (Mus musculus) [23],1.1
same,fold change (FC),Mus musculus [24],2.41
same,Activity,MC3T3-E1 [4],Active
same,Ratio,SMAD1/5/9 (Mus musculus) [25],1.1
same,fold change (FC),Mus musculus [26],1.42
same,Ratio,[27],1.6
same,inhibition,RAW264 [1],Active
same,Activity,Mus musculus [28],Dose-dependent effect
same,fold change (FC),MC3T3-E1 [2],0.85 to 1.25
